Measurements: article PMC9738062, “Selectively Halogenated Flavonolignans—Preparation and Antibacterial Activity” (International Journal of Molecular Sciences, 2022)

Key:
[1] = system: pooled male rat microsomal liver membranes; assay: Inhibition of lipid peroxidation induced by tert-butyl hydroperoxide; type: biochemical; conditions: male rat microsomes, read-out: ILP IC50
Method: The antiradical activity was evaluated by the ability to scavenge ABTS and DPPH radicals. Reducing capacity was assessed by the ability to reduce the Folin–Ciocalteu reagent (FCR) and ferric ions (FRAP). The ability to inhibit lipid peroxidation of pooled male rat microsomal liver membranes induced by tert-butyl hydroperoxide was also evaluated and the results were expressed as IC50 values.

[2] = system: lipopolysaccharide-stimulated macrophages (RAW 264.7); assay: Inhibition of nitric oxide production (Griess reagent); type: cell-based, murine; conditions: Mus musculus, RAW264.7; LPS 100 ng/mL, 24 h; highest tested concentration 100 µM; read-out: NO Production IC50
Outline: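 RAW 264.7 macrophages seeded at 1 × 10^6 cells/mL and stimulated with bacterial lipopolysaccharide. After 24 h, medium was mixed 1:1 with Griess reagent (0.04 g/mL) and absorbance read at 540 nm after 15 min. Viability by resazurin.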

[3] = system: Vibrio campbellii BAA 1118 (AI-1); assay: Viability of the quorum-sensing reporter culture (resazurin assay), AI-1 strain; type: cell-based; conditions: BAA1118, V. campbellii BAA 1118, resazurin assay, read-out: IC50 (concentration that halved the viability)
Outline: (§1)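 Mutant V. campbellii strains responding only to AI-1 (BAA-1118) or AI-2 (BAA-1119), seeded at 5 × 10^5 CFU/mL in Autoinducer Bioassay medium (potassium phosphate pH 7.0); compounds at final 0.2–200 µM.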

[4] = Ferric reducing antioxidant power (FRAP); conditions: Fe2+ equivalents
Outline: (§2)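 ABTS and DPPH radical scavenging gauged antiradical activity. Reducing capacity was measured as reduction of Folin–Ciocalteu reagent and of ferric ions (FRAP).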

[5] = Folin-Ciocalteu reagent reduction; conditions: gallic acid equivalents
Outline: as §2

[6] = system: Vibrio campbellii BAA 1119 (AI-2); assay: Viability of the quorum-sensing reporter culture (resazurin assay), AI-2 strain; type: cell-based; conditions: BAA1119, V. campbellii BAA 1119, resazurin assay, read-out: IC50 (concentration that halved the viability)
Outline: as §1

[7] = ABTS cation radical scavenging; conditions: vitamin C equivalent antioxidant capacity
Outline: as §2

DPPH radical scavenging = conditions: 1,1-diphenyl-2-picrylhydrazyl radical scavenging
Outline: as §2

[8] = system: doxorubicin-resistant human ovarian carcinoma (HOC/DOX); assay: Cytotoxicity (resazurin assay, 72 h); type: cell-based; conditions: for IC50: Homo sapiens, 72 h, resazurin assay; for SI (selectivity index): ratio IC50 for HDF / IC50 for HOC/DOX
Outline: (§3)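 HDF and HOC/DOX cells in DMEM with 10% FBS were treated 24 h after seeding with 31.25–500 µM compound for 72 h at 37 °C. Viability was read by resazurin fluorescence (560/590 nm) after 2 h; IC50 came from nonlinear regression, and selectivity index = IC50(HDF)/IC50(HOC/DOX).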

[9] = system: human dermal fibroblasts (HDF); assay: Cytotoxicity (resazurin assay, 72 h); type: cell-based; conditions: Fibroblast
Outline: as §3

[10] = system: Vibrio campbellii BAA 1119 (AI-2); assay: microbe, parasite or virus in culture; type: cell-based; conditions: for EC50: Vibrio campbellii, BAA1119, 16 h, read-out: EC50 (concentration that halved the communication); for SI (selectivity index): ratio IC50 (viability) / EC50 (communication), BAA 1119
Outline: as §1

[11] = system: Vibrio campbellii BAA 1118 (AI-1); assay: microbe, parasite or virus in culture; type: cell-based; conditions: for EC50: Vibrio campbellii, BAA1118, 16 h, read-out: EC50 (concentration that halved the communication); for SI (selectivity index): ratio IC50 (viability) / EC50 (communication), BAA 1118
Outline: as §1

SMILES: O=c1c(O)c(-c2ccc(O)c(O)c2)oc2c(Br)c(O)cc(O)c12 [compound 9, 8-bromoquercetin]
- IC50 [1]: 38.3 ± 1.9 µM
- IC50 [2]: > 100 µM
- IC50 [3]: 27.8 ± 0.5 µM
- FRAP [Fe2+eq] [4]: 2.44 ± 0.06 Fe2+eq
- FCR [GAE] [5]: 2.01 ± 0.06 GAE
- IC50 [6]: 1.1 ± 0.1 µM
- ABTS [CEAC] [7]: 2.92 ± 0.28 CEAC
- IC50 (DPPH radical scavenging): 2.44 µM
- IC50 [8]: 171 µM
- SI (selectivity index) [8]: 0.77
- IC50 [9]: 132 µM
- EC50 [10]: 0.4 ± 0.02 µM
- SI (selectivity index) [10]: 2.9 ± 0.3
- EC50 [11]: 25.6 ± 0.5 µM
- SI (selectivity index) [11]: 1.08 ± 0.04

SMILES: O=c1c(O)c(-c2ccc(O)c(O)c2)oc2c(Br)c(O)c(Br)c(O)c12 [compound 10, 6,8-dibromoquercetin]
- IC50 [1]: 28.6 ± 1.1 µM
- IC50 [2]: 40.6 ± 2.6 µM
- IC50 [3]: 13.8 ± 0.5 µM
- FRAP [Fe2+eq] [4]: 3.31 ± 0.14 Fe2+eq
- FCR [GAE] [5]: 1.70 ± 0.02 GAE
- IC50 [6]: 3.5 ± 0.1 µM
- ABTS [CEAC] [7]: 2.63 ± 0.19 CEAC
- IC50 (DPPH radical scavenging): 3.59 µM
- IC50 [8]: 54.2 ± 0.3 µM
- SI (selectivity index) [8]: 1.02
- IC50 [9]: 55 ± 1.9 µM
- EC50 [10]: 0.7 ± 0.02 µM
- SI (selectivity index) [10]: 5.0 ± 0.3
- EC50 [11]: 7.3 ± 0.4 µM
- SI (selectivity index) [11]: 1.9 ± 0.2

SMILES: COc1cc([C@H]2Oc3cc([C@H]4Oc5cc(O)c(Br)c(O)c5C(=O)[C@@H]4O)ccc3O[C@@H]2CO)ccc1O [compound 11, 6-Bromosilybin A]
- IC50 [1]: 449 µM
- IC50 [2]: 40 ± 3.4 µM
- IC50 [3]: 51.7 ± 0.7 µM
- FRAP [Fe2+eq] [4]: 0.072 ± 0.002 Fe2+eq
- FCR [GAE] [5]: 1.06 ± 0.04 GAE
- IC50 [6]: 51.5 ± 0.6 µM
- ABTS [CEAC] [7]: 0.60 ± 0.04 CEAC
- IC50 (DPPH radical scavenging): 472 µM
- IC50 [8]: 186 µM
- SI (selectivity index) [8]: 0.51
- IC50 [9]: 95.6 ± 3 µM
- EC50 [10]: 9.4 ± 0.5 µM
- SI (selectivity index) [10]: 5.5 ± 0.3
- EC50 [11]: 24.4 ± 0.7 µM
- SI (selectivity index) [11]: 2.1 ± 0.1

SMILES: COc1cc([C@H]2Oc3cc([C@H]4Oc5c(Br)c(O)c(Br)c(O)c5C(=O)[C@@H]4O)ccc3O[C@@H]2CO)ccc1O [compound 12, 6,8-dibromosilybin A]
- IC50 [1]: 710 µM
- IC50 [2]: 73.9 ± 5.8 µM
- IC50 [3]: 23.5 ± 1 µM
- FRAP [Fe2+eq] [4]: 0.084 ± 0.004 Fe2+eq
- FCR [GAE] [5]: 0.85 ± 0.03 GAE
- IC50 [6]: 80.5 ± 4.8 µM
- ABTS [CEAC] [7]: 0.30 ± 0.04 CEAC
- IC50 (DPPH radical scavenging): 383 µM
- IC50 [8]: 304 µM
- SI (selectivity index) [8]: 0.34
- IC50 [9]: 102 µM
- EC50 [10]: 13.2 ± 0.3 µM
- SI (selectivity index) [10]: 6.1 ± 0.5
- EC50 [11]: 12.2 ± 0.4 µM
- SI (selectivity index) [11]: 1.9 ± 0.2

SMILES: COc1cc([C@@H]2Oc3cc([C@H]4Oc5cc(O)c(Br)c(O)c5C(=O)[C@@H]4O)ccc3O[C@H]2CO)ccc1O [compound 13, 6-Bromosilybin B]
- IC50 [1]: 728 µM
- IC50 [2]: 37 ± 2.4 µM
- IC50 [3]: 16.1 ± 0.1 µM
- FRAP [Fe2+eq] [4]: 0.063 ± 0.001 Fe2+eq
- FCR [GAE] [5]: 1.17 ± 0.04 GAE
- IC50 [6]: 52.7 ± 0.6 µM
- ABTS [CEAC] [7]: 0.75 ± 0.02 CEAC
- IC50 (DPPH radical scavenging): 354 µM
- IC50 [8]: 162 µM
- SI (selectivity index) [8]: 0.47
- IC50 [9]: 76.4 ± 1.1 µM
- EC50 [10]: 26.1 ± 1.3 µM
- SI (selectivity index) [10]: 2.0 ± 0.1
- EC50 [11]: 14.5 ± 0.5 µM
- SI (selectivity index) [11]: 1.11 ± 0.04

SMILES: COc1cc([C@@H]2Oc3cc([C@H]4Oc5c(Br)c(O)c(Br)c(O)c5C(=O)[C@@H]4O)ccc3O[C@H]2CO)ccc1O [compound 14, 6,8-dibromosilybin B]
- IC50 [1]: 378 µM
- IC50 [2]: 90.4 ± 4.6 µM
- IC50 [3]: 16.6 ± 0.8 µM
- FRAP [Fe2+eq] [4]: 0.081 ± 0.004 Fe2+eq
- FCR [GAE] [5]: 1.10 ± 0.05 GAE
- IC50 [6]: 60.2 ± 3.4 µM
- ABTS [CEAC] [7]: 0.35 ± 0.04 CEAC
- IC50 (DPPH radical scavenging): 256 µM
- IC50 [8]: 231 µM
- SI (selectivity index) [8]: 0.55
- IC50 [9]: 128 µM
- EC50 [10]: 19.3 ± 0.5 µM
- SI (selectivity index) [10]: 3.1 ± 0.3
- EC50 [11]: 14.7 ± 0.7 µM
- SI (selectivity index) [11]: 1.1 ± 0.1

SMILES: COc1cc(C2Oc3cc(-c4oc5c(Br)c(O)cc(O)c5c(=O)c4O)ccc3OC2CO)ccc1O (stereo not shown) [compound 16, 8-bromo-2,3-dehydrosilybin AB]
- IC50 [1]: 49.2 ± 1.9 µM
- IC50 [2]: > 25 µM
- IC50 [3]: > 200 µM
- FRAP [Fe2+eq] [4]: 0.19 ± 0.01 Fe2+eq
- FCR [GAE] [5]: 1.56 ± 0.03 GAE
- IC50 [6]: 87 ± 2.5 µM
- ABTS [CEAC] [7]: 1.15 ± 0.03 CEAC
- IC50 (DPPH radical scavenging): 13.4 µM
- IC50 [8]: 39.4 ± 3.4 µM
- SI (selectivity index) [8]: 0.43
- IC50 [9]: 16.9 ± 0.6 µM
- EC50 [10]: 6.9 ± 0.3 µM
- SI (selectivity index) [10]: 12.7 ± 1.0
- EC50 [11]: > 200 µM

SMILES: COc1cc([C@@H]2Oc3c(O)cc(-c4oc5c(Br)c(O)cc(O)c5c(=O)c4O)cc3[C@H]2CO)ccc1O [compound 18, 8-Bromo-2,3-dehydrosilychristin A]
- IC50 [1]: 60.1 ± 2.7 µM
- IC50 [2]: 32.6 ± 1.8 µM
- IC50 [3]: 80.1 ± 1.7 µM
- FRAP [Fe2+eq] [4]: 0.90 Fe2+eq
- FCR [GAE] [5]: 2.22 GAE
- IC50 [6]: 23 ± 0.2 µM
- ABTS [CEAC] [7]: 1.41 CEAC
- IC50 (DPPH radical scavenging): 11.1 ± 0.6 µM
- IC50 [8]: 209 µM
- SI (selectivity index) [8]: 0.32
- IC50 [9]: 66.7 ± 5.6 µM
- EC50 [10]: 10.5 ± 0.2 µM
- SI (selectivity index) [10]: 2.2 ± 0.1
- EC50 [11]: 29.4 ± 0.7 µM
- SI (selectivity index) [11]: 2.7 ± 0.1

SMILES: COc1cc([C@H]2Oc3cc([C@H]4Oc5c(Br)c(O)c(Br)c(O)c5C(=O)[C@@H]4O)ccc3O[C@@H]2CO)cc(Br)c1O [compound 21, 6,8,21-tribromosilybin A]
- IC50 [1]: 213 µM
- IC50 [2]: 70.4 ± 1.7 µM
- IC50 [3]: > 200 µM
- FRAP [Fe2+eq] [4]: 0.079 ± 0.002 Fe2+eq
- FCR [GAE] [5]: 0.99 ± 0.02 GAE
- IC50 [6]: > 200 µM
- ABTS [CEAC] [7]: 0.12 ± 0.02 CEAC
- IC50 (DPPH radical scavenging): 375 µM
- IC50 [8]: 201 µM
- SI (selectivity index) [8]: 0.37
- IC50 [9]: 75 ± 2.4 µM
- EC50 [10]: 30.7 ± 1.6 µM
- SI (selectivity index) [10]: ≥6.5 ± 0.3
- EC50 [11]: > 200 µM

SMILES: COc1cc([C@@H]2Oc3cc([C@H]4Oc5c(Br)c(O)c(Br)c(O)c5C(=O)[C@@H]4O)ccc3O[C@H]2CO)cc(Br)c1O [compound 22, 6,8,21-tribromosilybin B]
- IC50 [1]: 255 µM
- IC50 [2]: > 100 µM
- IC50 [3]: 7.3 ± 0.1 µM
- FRAP [Fe2+eq] [4]: 0.062 ± 0.002 Fe2+eq
- FCR [GAE] [5]: 1.01 ± 0.04 GAE
- IC50 [6]: 34.4 ± 1.8 µM
- ABTS [CEAC] [7]: 0.17 ± 0.01 CEAC
- IC50 (DPPH radical scavenging): 238 µM
- IC50 [8]: 183 µM
- SI (selectivity index) [8]: 0.47
- IC50 [9]: 85.8 ± 1.1 µM
- EC50 [10]: 12 ± 0.5 µM
- SI (selectivity index) [10]: 2.9 ± 0.3
- EC50 [11]: 4.3 ± 0.3 µM
- SI (selectivity index) [11]: 1.7 ± 0.1
